Test results published in patent US10287301B2 (Achillion Pharmaceuticals, Inc., priority 2015, dated 2019).

Target: Human Factor D (Homo sapiens (Human), UniProt P00746)
Experiment: Human Factor D Assay
Type: biochemical
Conditions: Human Factor D assay of Example 8; Table 2; read-out: IC50
How it was run: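 Factor D (from human serum) 80 nM final + cpd, 5 min RT, 50 mM Tris/1M NaCl pH 7.5; add Z-L-Lys-SBzl 100 μM and DTNB 100 μM final. IC50 by nonlinear fit of rates vs [cpd].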

Chain of Human Factor D (P00746 26-253): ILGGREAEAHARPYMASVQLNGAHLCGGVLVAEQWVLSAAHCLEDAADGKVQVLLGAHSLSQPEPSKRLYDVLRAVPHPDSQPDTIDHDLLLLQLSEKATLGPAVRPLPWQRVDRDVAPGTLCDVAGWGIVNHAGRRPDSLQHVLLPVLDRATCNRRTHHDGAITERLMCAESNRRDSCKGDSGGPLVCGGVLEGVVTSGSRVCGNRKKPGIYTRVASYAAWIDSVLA

Row | Structure (SMILES) | IC50
1 | CC(=O)c1nn(CC(=O)N2CC[C@@H](N)[C@H]2C(=O)Nc2cccc(Br)n2)c2ccc(-c3cnc(C)nc3)cc12 [Compound 270, (2S,3R)-1-(2-(3-Acetyl-5-(2-methylpyrimidin-5-yl)-1H-indazol-1-yl)acetyl)-3-amino-N-(6-bromopyridin-2-yl)pyrrolidine-2-carboxamide] | < 1000 nM
2 | CC(=O)c1nn(CC(=O)N2C(=O)CC[C@H]2C(=O)Nc2cccc(Br)n2)c2ccc(-c3cnc(C)nc3)cc12 [Compound 271, (S)-1-(2-(3-Acetyl-5-(2-methylpyrimidin-5-yl)-1H-indazol-1-yl)acetyl)-N-(6-bromopyridin-2-yl)-5-oxopyrrolidine-2-carboxamide] | < 1000 nM
3 | CC(=O)c1nn(CC(=O)N2C[C@H](F)C[C@H]2C(=O)Nc2cccc(-c3c(F)c(F)c(F)c(F)c3F)c2F)c2ccc(-c3cnc(C)nc3)cc12 [Compound 272, (2S,4R)-1-(2-(3-acetyl-5-(2-methylpyrimidin-5-yl)-1H-indazol-1-yl)acetyl)-4-fluoro-N-(2,2′,3′,4′,5′,6′-hexafluorobiphenyl-3-yl)pyrrolidine-2-carboxamide] | < 1000 nM
4 | CC(=O)c1nn(CC(=O)N2C[C@H](F)C[C@H]2C(=O)Nc2cccc(Br)c2F)c2ccc(-c3cnc(C)nc3)cc12 [Compound 273, (2S,4R)-1-(2-(3-acetyl-5-(2-methylpyrimidin-5-yl)-1H-indazol-1-yl)acetyl)-N-(3-bromo-2-fluorophenyl)-4-fluoropyrrolidine-2-carboxamide] | < 1000 nM
5 | CC(=O)c1nn(CC(=O)N2C[C@H](F)C[C@H]2C(=O)Nc2cccc(Br)n2)c2ccc(-c3cnc4cc(C(C)C)nn4c3)cc12 [Compound 274, (2S,4R)-1-(2-(3-acetyl-5-(2-isopropylpyrazolo [1,5-a]pyrimidin-6-yl)-1H-indazol-1-yl)acetyl)-N-(6-bromopyridin-2-yl)-4-fluoropyrrolidine-2-carboxamide] | < 1000 nM
6 | COc1cccc(NC(=O)[C@@H]2C[C@@H](F)CN2C(=O)Cn2nc(C(C)=O)c3cc(-c4cnc5cc(C)nn5c4)ccc32)c1F [Compound 275, (2S,4R)-1-(2-(3-acetyl-5-(2-methylpyrazolo[1,5-a]pyrimidin-6-yl)-1H-indazol-1-yl)acetyl)-4-fluoro-N-(2-fluoro-3-methoxyphenyl) pyrrolidine-2-carboxamide] | < 1000 nM
7 | CC(=O)c1cn(CC(=O)N2C[C@H](F)C[C@H]2C(=O)Nc2cccc(OC(F)(F)F)c2F)c2ccc(-c3cnc4cc(C)nn4c3)cc12 [Compound 276, (2S,4R)-1-(2-(3-acetyl-5-(2-methylpyrazolo[1,5-a]pyrimidin-6-yl)-1H-indol-1-yl)acetyl)-4-fluoro-N-(2-fluoro-3-(trifluoromethoxy)phenyl)pyrrolidine-2-carboxamide] | < 1000 nM
8 | CC(=O)c1cn(CC(=O)N2C[C@H](F)C[C@H]2C(=O)Nc2cccc(Br)n2)c2ccc(-c3cnc4cc(C)nn4c3)cc12 [Compound 277, (2S,4R)-1-(2-(3-acetyl-5-(2-methylpyrazolo[1,5-a]pyrimidin-6-yl)-1H-indol-1-yl)acetyl)-N-(6-bromopyridin-2-yl)-4-fluoropyrrolidine-2-carboxamide] | < 1000 nM
9 | Cc1ncc(-c2cc3c(C(N)=O)nn(CC(=O)N4C[C@H](F)C[C@H]4C(=O)Nc4cccc(Br)n4)c3cn2)cn1 [Compound 278, 1-(2-((2S,4R)-2-(6-bromopyridin-2-ylcarbamoyl)-4-fluoropyrrolidin-1-yl)-2-oxoethyl)-5-(2-methylpyrimidin-5-yl)-1H-pyrazolo[3,4-c]pyridine-3-carboxamide] | < 1000 nM
10 | C=CCCCCCCCCCNc1ncc(-c2ccc3c(c2)c(C(C)=O)nn3CC(=O)N2C[C@H](F)C[C@H]2C(=O)NCc2cc(C=C)cc(Cl)c2F)cn1 [Compound 279, (2S,4R)-1-(2-(3-acetyl-5-(2-(undec-10-enylamino)pyrimidin-5-yl)-1H-indazol-1-yl)acetyl)-N-(3-chloro-2-fluoro-5-vinylbenzyl)-4-fluoropyrrolidine-2-carboxamide] | > 10000 nM
11 | CC(=O)c1nn(CC(=O)N2C[C@H](F)C[C@H]2C(=O)Nc2cccc(OC(F)F)c2F)c2ccc(-c3cnc4cc(C)nn4c3)cc12 [Compound 281, (2S,4R)-1-(2-(3-acetyl-5-(2-methylpyrazolo[1,5-a]pyrimidin-6-yl)-1H-indazol-1-yl)acetyl)-N-(3-(difluoromethoxy)-2-fluorophenyl)-4-fluoropyrrolidine-2-carboxamide] | < 1000 nM
12 | CC(=O)c1nn(CC(=O)N2C[C@H](F)C[C@H]2C(=O)Nc2cccc(OC(F)F)c2F)c2ccc(-c3cnc4ccnn4c3)cc12 [Compound 282, (2S,4R)-1-(2-(3-acetyl-5-(pyrazolo[1,5-a]pyrimidin-6-yl)-1H-indazol-1-yl)acetyl)-N-(3-(difluoromethoxy)-2-fluorophenyl)-4-fluoropyrrolidine-2-carboxamide] | < 1000 nM
13 | Cc1cc2ncc(-c3cc4c(C(N)=O)nn(CC(=O)N5C[C@H](F)C[C@H]5C(=O)Nc5cccc(OC(F)(F)F)c5F)c4cn3)cn2n1 [Compound 283, 1-(2-((2S,4R)-4-fluoro-2-(2-fluoro-3-(trifluoromethoxy)phenylcarbamoyl)pyrrolidin-1-yl)-2-oxoethyl)-5-(2-methylpyrazolo[1,5-a]pyrimidin-6-yl)-1H-pyrazolo[3,4-c]pyridine-3-carboxamide] | < 1000 nM
14 | Cc1cc2ncc(-c3ccc4c(c3)c(C(N)=O)nn4CC(=O)N3C[C@H](F)C[C@H]3C(=O)Nc3cccc(Br)n3)cn2n1 [Compound 284, 1-(2-((2S,4R)-2-(6-bromopyridin-2-ylcarbamoyl)-4-fluoropyrrolidin-1-yl)-2-oxoethyl)-5-(2-methylpyrazolo[1,5-a]pyrimidin-6-yl)-1H-indazole-3-carboxamide] | < 1000 nM
15 | CC(=O)c1nn(CC(=O)N2CC=C[C@H]2C(=O)Nc2cccc(-c3ccccc3Cl)c2F)c2ccc(-c3cnc(C)nc3)cc12 [Compound 286, (S)-1-(2-(3-acetyl-5-(2-methylpyrimidin-5-yl)-1H-indazol-1-yl)acetyl)-N-(2′-chloro-2-fluorobiphenyl-3-yl)-2,5-dihydro-1H-pyrrole-2-carboxamide] | < 1000 nM
16 | CCOC(=O)c1cc2ncc(-c3ccc4c(c3)c(C(C)=O)nn4CC(=O)N3C[C@H](F)C[C@H]3C(=O)Nc3cccc(Br)n3)cn2n1 [Compound 287, ethyl 6-(3-acetyl-1-(2-((2S,4R)-2-(6-bromopyridin-2-ylcarbamoyl)-4-fluoropyrrolidin-1-yl)-2-oxoethyl)-1H-indazol-5-yl)pyrazolo[1,5-a]pyrimidine-2-carboxylate] | < 1000 nM
17 | CC(=O)c1nn(CC(=O)N2C[C@H](F)C[C@H]2C(=O)Nc2cccc(Br)n2)c2ccc(-c3cnc4cc(C(N)=O)nn4c3)cc12 [Compound 288, 6-(3-Acetyl-1-(2-((2S,4R)-2-((6-Bromopyridin-2-yl)carbamoyl)-4-fluoropyrrolidin-1-yl)-2-oxoethyl)-1H-indazol-5-yl)pyrazolo[1,5-a]pyrimidine-2-carboxamide] | < 1000 nM
18 | CC(=O)c1nn(CC(=O)N2C[C@H](F)C[C@H]2C(=O)Nc2cccc(Br)n2)c2ccc(-c3cnc4cc(C(=O)O)nn4c3)cc12 [Compound 289, 6-(3-acetyl-1-(2-((2S,4R)-2-(6-bromopyridin-2-ylcarbamoyl)-4-fluoropyrrolidin-1-yl)-2-oxoethyl)-1H-indazol-5-yl)pyrazolo[1,5-a]pyrimidine-2-carboxylic acid] | < 1000 nM
